Measurements as given in patent US8193225B2, “Isoxazole amides, derivatives and methods of chemical induction of neurogenesis” (priority 2006, dated 2012).
“Also recorded” adds a separate entry of the source.

How the values were obtained:
[1] = tested on: MEF2 reporter gene (3XMRE-luc); assay: MEF2 reporter gene (3XMRE-luc) assay in HCN cells; type: cell-based, rat; conditions: HCN cells/NPCs, versus vehicle
[2] = tested on: human CD133(+) brain tumor stem cells (BTSCs); assay: differentiation of CD133+ brain tumor stem cells (BTSCs); type: cell-based; conditions: 20 μM, within 4 days
Protocol: (§1) CD133+ glioblastoma brain tumor stem cells (BTSCs) from an explanted human tumor specimen were treated with 20 μM Isx-9 (FIG. 9C) or vol/vol DMSO (vehicle) control (FIG. 9B).

NeuroD-luciferase [3] = assay: NeuroD-luciferase reporter in BTSCs; type: cell-based, human; conditions: after 24 hours, compared to vehicle
Protocol: as §1

neuroD-luciferase [4] = assay: neuroD-luciferase reporter gene assay in HCN cells; type: cell-based, rat; conditions: HCN cells
HCN cells [5] = assay: RT-PCR and protein blotting of gene expression in HCN cells; type: cell-based, rat
HCN cells [6] = assay: glial (astrocyte, oligodendrocyte) differentiation of HCN cells/NPCs; type: cell-based, rat; conditions: 4 d cultures
HDAC5 = assay: protein blotting of phospho-HDAC5, HDAC4 and phospho-CaMKII in HCN cells; type: cell-based, rat; conditions: Isx/Isx-9-treated HCNs, 1-2 d
[7] = tested on: human CD133(+) brain tumor stem cells (BTSCs); assay: RT-PCR and protein blotting of gene expression in BTSCs; type: cell-based
From the text: FIGS. 9A-H—Isoxazoles specifically target the CD133(+) glioblastoma cancer stem cell to adopt a neuronal fate program. […] (FIG. 9B) BTSCs cultured with DMSO (vehicle) (1% vol./vol.). (FIG. 9D) Isx-9-treated BTSCs stained with neuronal markers Tuj1 (red) and Map2ab (green), Dapi-stained nuclei is blue. Scale bar=25 μm. […] (FIGS. 9G and 9H) RT-PCR and protein blotting analysis of gene expression in Isx-9-treated BTSCs. […] GAPDH is used as a normalization control.
This activity remained following addition of FGF/EGF without additional Isx-9 addition.

HCN cells [8] = assay: in vitro neuronal differentiation of HCN cells (morphology, Tuj1 staining); type: cell-based, rat
[9] = tested on: adult mouse whole brain (MWB) neural progenitor cells; assay: neuronal differentiation of adult mouse whole brain (MWB) neural progenitor cells; type: cell-based; conditions: 4 d cultures
Protocol: (§2) Neural stem cell culture, in vitro differentiation, and CaMK inhibitor studies. The hippocampal neural stem/progenitor (NSC) line used in this study (HCN cells) were originally isolated from adult (8-10 wks old) female Fisher 344 rats and have been characterized previously (Gage et al., 1995; Palmer et al., 1997). HCN cells were cultured in DMEM:F12 (Omega Scientific) with N2 supplement (Invitrogen) and basic fibroblast growth factor (20 ng/ml FGF-2) (PeproTech). The mouse whole brain neural stem/progenitors (MWB) were derived from adult (8-10 wks old) C57BL/6 mice that have been characterized previously (Ray and Gage, 2006). The P19CL6 cells is a sub-line of P19EC cells, originally generated by the late Dr. Habara-Ohkubo (Habara-Ohkubo, 1996), were grown in MEM-α (Invitrogen) containing 10% fetal bovine serum (Omega). HCN cells or MWB neural progenitors were trypsinized and plated into N2 medium (Invitrogen) containing FGF-2 (HCN cells) or FGF-2/EGF/heparin (MWB) overnight, and switched to fresh N2 medium without FGF-2 and Isx-9 (20 μM for HCN cells and 5 μM for MWB) was added for 4 d. To test if Isx-9 could block competing astrocyte or oligodendrocyte differentiation, standard gliogenic conditions were used as described previously (Hsieh et al., 2004). […]

P19CL6 cells = assay: neuronal differentiation of P19CL6 cells; type: cell-based, mouse; conditions: 4 d cultures
Protocol: as §2

[10] = tested on: human CD133(+) brain tumor stem cells (BTSCs); assay: growth, secondary neurospheres and BrdU uptake of BTSCs; type: cell-based
Protocol: CD133(+) brain tumor stem cells (BTSCs) from an explanted human tumor specimen were treated with EGF/FGF (FIG. 10A) or Isx-9 (20 μM) (FIG. 10B) for 7 days before returning to EGF/FGF (FIG. 10C) or EGF/FGF plus Isx-9 conditions (FIG. 10D) for an additional 2 days.
The number and size of neurospheres observed in 7-day pretreated BTSCs with DMSO (vehicle), EGF/FGF, or Isx-9 that were dissociated and re-plated to form secondary neurospheres (1000 cells/well) under various conditions is shown in FIG. 10F.

[11] = tested on: RFP-labeled human CD133(+) BTSCs; assay: transplantation of pre-treated RFP-labeled BTSCs into striatum of NOD/scid mice; type: in vivo
Protocol: BTSC transplantation was performed by stereotactic surgery into the left striatum (coordinates from Bregma AP −0 mm, ML +2.5 mm, DV −3.5 mm) with a 33-gauge Hamilton syringe at a flow rate of 30,000 cells/10 minutes.

gluR2-luc = assay: gluR2-luciferase reporter gene assay in HCN cells; type: cell-based, rat

O=C(NC1CC1)c1cc(-c2cccs2)on1 [Isx-9, N-cyclopropyl-5-(thiophen-2-yl)isoxazole-3-carboxamide]
activation of MEF2 reporter gene (3XMRE-luc) / MEF2 promoter [1]: Dose-dependent activation
neuronal differentiation of BTSCs [2]: triggers a pro neuronal-differentiation effect; also recorded: leads to more differentiated (adherent and phase-dark with neuronal-like processes) cells
activation of NeuroD-luciferase in BTSCs (NeuroD-luciferase [3]): Dose-dependent activation
increase in neuroD luciferase reporter (neuroD-luciferase [4]): ≥ 8 fold
MEF2 mRNA levels (HCN cells [5]; 2- and 4-days, compared to vehicle): up-regulated
expression of SOX2 (HCN cells [5]; HCN cells): decreased expression
neuronal protein expression (protein blotting) (HCN cells [5]; HCN cells/NPCs): increased Tuj1 protein
MEF2A and MEF2C protein levels (HCN cells [5]; protein blotting time-course, up to 64 hours): unchanged
gliogenesis / glial differentiation (HCN cells [6]): dominantly blocks gliogenesis
HDAC5 phosphorylation / cytoplasmic phospho-HDAC5 (HDAC5): Increased HDAC5 phosphorylation over time; also recorded: Accumulation of phospho-HDAC5 in the cytoplasm; also recorded: cytoplasmic enrichment of phospho-HDAC5
CD133 expression in BTSCs [7]: downregulated
HDAC-4 and -5 protein in BTSCs [7]: remain relatively unchanged
NRSF expression in BTSCs [7]: downregulated
NeuroD expression in BTSCs ([7]; 2 days): Up-regulation of NeuroD
overall levels of neuronal proteins (βTujIII, GluR2) in BTSCs ([7]; versus control): do not significantly differ
neuronal differentiation of HCN cells/NPCs (HCN cells [8]; 20 μM, 4 d cultures): promotes robust neuronal differentiation
Tuj1+ differentiation (HCN cells [8]; HCN cells, by 4 d): > 50%
neuronal differentiation of MWB neural progenitors [9]: promotes neuronal differentiation
neuronal differentiation of P19CL6 / P19 embryonal carcinoma cells (P19CL6 cells): promotes neuronal differentiation
cell attachment and differentiation of BTSCs after growth factor challenge ([10]; 7-day exposure, 20 μM): promotes an irreversible state of cell attachment and differentiation
number and size of secondary neurospheres ([10]; 7-day pre-treatment, compared to EGF/FGF pre-treatment): mediates a decrease in the average number and size of each secondary neurosphere
DNA synthesis/proliferation (BrdU uptake) of BTSCs ([10]; 7 days pre-treatment, EGF/FGF added back for 24 hours): leads to decreased DNA synthesis/proliferation
tumor-initiating ability of BTSCs ([11]; 7-day exposure in vitro (20 μM) before transplantation): dramatically reduces tumor-initiating ability
number of RFP-labeled BTSCs in the striatum ([11]; after 1 month): significant reduced the number of RFP-labeled BTSCs in the striatum
increase in gluR2 luciferase reporter (gluR2-luc): ≥ 8 fold
